Experimental data published in patent publication US20060093580A1, “Tolerogenic vaccine and method” (priority 2004, published 2006).
“And” between values parts separate entries of the source, which are not always exact repeats. Identical values can stand only once. “Also recorded” adds a separate entry of the source. Like-named read-outs stand apart in the source and are kept apart here.

Assays:
CD4^+CD25^− T cells [1] = test system: CD4^+CD25^− T cells
Procedure: (I) Cytokine production by 1-but and t-but-treated CD4^+25^− and CD4^+25^+ T cells. CD4^+25^− and CD4^+25^+ T cells were stimulated as described in FIG. 3A. The same supernatants were used to measure the amount of IL-4 (left panel) and IFN-γ (right panel). Closed bars show medium-treated T cells, gray bars show t-but- treated T cells, and open bars show 1-but-treated T cells.
(A) Effect of 1-butanol on anti-CD3-induced IL-2 production. […] IL-2 production was determined by ELISA of culture supernatants obtained after 24 hours of stimulation.
(§1) For determination of cell division, T cells were labeled with 1 μM CFSE (Molecular Probes, Eugene, Oreg.) for 15 minutes at 37° C. CFSE-labeled T cells (5×10^5 cells/ml) were cultured with 0.2 μg/ml of anti-CD3 with APCs (T cell-depleted splenocytes, γ-irradiated with 2000 rads, 8×10^5 cells/ml). […] After 72 hours, cells were harvested and stained with antibody against CD4 and CD8. The number of cell divisions was determined by flow cytometry. Exogenous IL-2 was added at 50 units/ml where indicated. For the proliferation assay, ^3H-thymidine (0.5 μCi/well) was added for the last 6 hours of culture. Cytokine assays were performed by enzyme-linked immunoassays as previously described (Singh, N. et al. (1999), J. Immunol. 163:2373-2377).

CD4^+CD25^− T cells [2] = assay: CD25 expression by flow cytometry after anti-CD3 stimulation; format: cell-based, mouse; details: anti-CD3 + APCs, 16 hours
Procedure: (§2) After 16 hours of stimulation, expression of CD25 was analyzed by flow cytometry. Dotted lines represent the staining level of unstimulated cells.

ERK = assay: Anti-CD3-induced ERK activation (phospho-ERK staining); format: cell-based, mouse; details: anti-CD3 + APCs, 3 hours
Procedure: (D) Effect of 1-butanol on antl-CD3-induced ERK activation. CD4 T cells were stimulated with anti-CD3 and APCs for 3 hours and stained with antibody against phospho-ERK. […] Thick lines show the data from stimulated cells and thin lines show data from unstimulated cells.
TCR stimulation also induces activation of the Ras/ERK pathway, and sustained ERK activation is essential for IL-2 production (Iwashima, M. (May, 2003), Immunol. Review 192; T. Koike et al., J. Biol. Chem. 278:15685-15692).

[3] = test system: splenic CD4 and CD8 T cells; assay: CFSE cell division of anti-CD3-stimulated splenic T cells; format: cell-based, mouse; details: 0.3% alcohol, anti-CD3 + irradiated APCs, 72 hours
Procedure: as §1

CD4^+CD25^− T cells [4] = assay: 3H-thymidine proliferation after anti-CD3 stimulation with or without exogenous IL-2; format: cell-based, mouse; details: 0.3%
Procedure: (§3) (B) 1-butanol effect on the proliferative response of CD4^+CD25^− and CD4^+CD25^+ T cells to anti-CD3 or anti-CD3^+ exogenous IL-2. […] Proliferation of cells was measured as in FIG. 1B.
(§4) (D) CD4^+CD25^− and CD4^+CD25^+ T cells (2×10^4 cells/well) were stimulated by anti-CD3 in the absence (left panel) or presence (right panel) of exogenous IL-2. […] [3H]-thymidine uptake was measured 72 hours later.
as §1
We also examined the effect of 1-alcohol on the proliferation of CD4^+CD25^− and CD4^+CD25^+ cells. CD4^+CD25^− and CD4^+CD25^+ cells were isolated from splenocytes using a MoFlo cell sorter. Each cell type was stimulated with anti-CD3 antibody in the presence of irradiated APCs with or without the addition of exogenous IL-2. Proliferation was measured by ^3H-thymidine incorporation on day 3.

CD4^+CD25^+ T cells [5] = test system: CD4^+CD25^+ T cells
Procedure: as §2

CD4^+CD25^+ T cells [6] = details: 0.3%, activation by anti-CD3 and IL-2
Procedure: as §3, §4, §1
We also examined the effect of 1-alcohol on the proliferation of CD4^+CD25^− and CD4^+CD25^+ cells. CD4^+CD25^− and CD4^+CD25^+ cells were isolated from splenocytes using a MoFlo cell sorter. […] Proliferation was measured by ^3H-thymidine incorporation on day 3.

CD4^+CD25^− T cells [7] = assay: In vitro suppression assay; format: cell-based, mouse; details: 1-butanol and anti-CD3 treatment
Procedure: CD4^+CD25^− T cells (2.5×10^4 cells) were cultured with graded doses of CD4^med cells (open circles), CD4^t-but cells (open squares) or CD4^1-but cells (closed squares) for 72 hours with anti-CD3 antibody and APCs. Proliferation of cells was measured as in (B).
Cells were cultured as in (C) using equal numbers of CD4^+CD25^− cells and CD4^med cells, CD4^1-but cells, or CD4^t-but cells. Production of IL-2 after 24 hours of co-culture was measured.
(H) Effect of CD4^med, CD4^t-but, and CD4^1-but cells on cytokine production by CD4^+25^− T cells. CD4^+25^− T cells were stimulated and co-cultured with CD4^med cells (med), CD4^t-but cells (t-but), or CD4^1-but cells (1-but) as described in FIG. 1D. IL-4 and IFN-γ in the culture supernatants were measured by ELISA.
Suppression of freshly isolated CD4^+CD25^− cells was measured as in FIG. 1C.
Suppressive effects were measured by ^3H-thymidine incorporation or by cytokine production.

splenic CD4^+ T cells = assay: Anti-CD3-induced elevation of intracellular Ca2+ (Fura2-AM); format: cell-based, mouse; details: added together with stimulating antibody
Procedure: (C) 1-butanol effect on anti-CD3-induced elevation of intracellular Ca2^+. CD4 T cells were labeled with Fura2-AM and activated with biotin conjugated anti-CD3 and streptavidin. […] Levels of Ca2^+ were determined by the ratio of fluorescence at 340/380 nm.
To further elucidate the role of PLD in T cell activation, TCR proximal signaling events were examined. First, the effect of 1-butanol on the elevation of intracellular Ca^2+ was determined. […] Elevation of intracellular Ca^2+ is required for activation of transcription factors, such as NF-AT, which are essential for CD25 and IL-2 expression (Crabtree, G. R. and Olson, E. N. (2002), Cell 109(Suppl):867-879; Hogan, P. G. et al. (Sep. 15, […]), Genes Dev. 17:2205-[…]).

CD4 Foxp3^+ cells = assay: Foxp3 and CTLA-4 flow cytometry of CD4 T cells expanded with alcohol; format: cell-based, mouse
Procedure: (B) Foxp3 and CTLA4 levels were determined by flow cytometry analysis of CD4^med, CD4^t-but or CD4^1-but cells at day 1 (upper panels) and day 8 (lower panels).
After 3 days of culture with alcohol, cells were expanded in the medium free of alcohol but containing IL-2 for 4 days and analyzed by flow cytometry with Foxp3 and CTLA-4.

PLD [8] = assay: TCR-induced PLD activity (3H-oleate labelling, PA and Pet by TLC); format: cell-based, mouse; details: 100 μM, plate-bound anti-CD3 40 minutes, 0.5% ethanol, primary T cells
From the text: FIG. 5 Effect of adenosine on TCR-induced PLD activation. (A) Phosphatidic acid production by primary CD4 T cells stimulated with anti-CD3 antibodies in the presence of ethanol (open bar) and adenosine (closed bar) compared with unstimulated T cells. (B) Phosphatidylethanol (Pet) production by primary CD4 Mouse CD4 T cells stimulated with anti-CD3 antibodies in the presence of ethanol (open bar) and adenosine (closed bar) compared with unstimulated T cells.
Mouse CD4 T cells were labeled with ^3H-oleate to measure PLD activity (Zheng, et al. (2003), Biochim. Biophys. Acta. 1643(1-3):25-36). Cells were then washed and activated by plate-bound anti-CD3 for 40 minutes in the presence of 0.5% of ethanol (open bar). Effect of adenosine was examined using the medium containing 100 μM of adenosine (closed bar). Cells were harvested and lipid extracts of cells were separated on TLC plates and bands corresponding to phosphatidic acid (PA) (FIG. 5A) and phosphatidylethanol (Pet) (FIG. 5B) were excised and counted by liquid scintillation.

PLD [9] = details: Thibault 2000; Grenier 2003; cited from earlier work
[10] = anti-CD3 + APCs, 3H-thymidine at 72 hours

Question: With `CCCCO` [1-butanol] as the molecule, how does the “production of IL-2 by CD4^+CD25^− T cells” value (CD4^+CD25^− T cells [1]; anti-CD3, 24 hours, ELISA) read?
Answer: blocked production

Question: What about the IFN-γ production (CD4^+CD25^− T cells [1]; anti-CD3, ELISA) of the same molecule?
Answer: abrogated

Question: And the IL-4 production (CD4^+CD25^− T cells [1]; anti-CD3, ELISA)?
Answer: abrogated

Question: What about the “expression of CD25 by CD4^+CD25^− T cells” value (CD4^+CD25^− T cells [2]) of the same molecule?
Answer: blocked the expression

Question: And the “CD3-induced elevation of phosphorylated ERK” value (ERK)?
Answer: abolished

Question: And the “anti-CD3 induced cell division” value [3]?
Answer: abrogated cell division

Question: What about the “reduction of proliferation of CD4^+CD25^− cells” value (CD4^+CD25^− T cells [4]; [10]) of the same molecule?
Answer: 80%

Question: And the “proliferation of treated CD4^+CD25^− cells on addition of exogenous IL-2” value (CD4^+CD25^− T cells [4]; anti-CD3 + exogenous IL-2)?
Answer: did not restore proliferation; also recorded: did not rescue the proliferation

Question: What about the “up-regulation of CD25 expression in CD4^+CD25^+ T cells” value (CD4^+CD25^+ T cells [5]; anti-CD3 + APCs, 16 hours) of the same molecule?
Answer: not affected

Question: And the “expression of CD69 by CD4^+CD25^+ T cells” value (CD4^+CD25^+ T cells [5]; not shown)?
Answer: did not impair

Question: And the “effect on proliferation of CD4^+CD25^+ T cells” value (CD4^+CD25^+ T cells [6])?
Answer: no effect

Question: What about the “suppressive activity of population expanded from total CD4^+ T cells” value (CD4^+CD25^− T cells [7]) of the same molecule?
Answer: strong suppressive activity

Question: What about the “suppressive function of population expanded from CD4^+ T cells with CD25^+ cells removed” value (CD4^+CD25^− T cells [7]) of the same molecule?
Answer: no suppressive function

Question: And the “Numbers of live cells obtained from 1 × 10^6 CD4^+ T cells” value (CD4^+ T cells)?
Answer: 3.1 ± 0.3 ×10^6 and 2.5 ± 0.5 ×10^6 and 3.4 ± 0.5 ×10^6

Question: And the “cells recovered from 1×10^6 CD4^+CD25^− cells” value (CD4^+ T cells)?
Answer: 5×10^5 cells

Question: What about the “cells recovered from 1×10^6 total CD4^+ cells” value (CD4^+ T cells) of the same molecule?
Answer: 3.6×10^6 cells

Question: And the “decrease in final yield on removal of CD25^+ T cells prior to treatment” value (CD4^+ T cells)?
Answer: 80%

Question: What about the “viability or surface antigen expression after pre-incubation” value (CD4^+ T cells) of the same molecule?
Answer: no difference

Question: What about the “anti-CD3-induced elevation of intracellular Ca^2+” value (splenic CD4^+ T cells) of the same molecule?
Answer: substantially impaired

Question: And the “expansion of Foxp3^+ cells (total cell number)” value (CD4 Foxp3^+ cells; in one week)?
Answer: more than 10 fold

Question: With `Nc1ncnc2c1ncn2[C@@H]1O[C@H](CO)[C@@H](O)[C@H]1O` [adenosine] as the molecule, how does the “PLD activity induced by TCR stimulation” value (PLD [8]) read?
Answer: completely abrogated

Question: What about the “PLD activation in neutrophils” value (PLD [9]) of the same molecule?
Answer: inhibit PLD activation

Question: Which results are given for `CC(C)(C)O` [t-butanol, Tert-butanol]?
Answer: expression of CD25 by CD4^+CD25^− T cells (CD4^+CD25^− T cells [2]): did not elicit a significant effect; CD3-induced elevation of phosphorylated ERK (ERK): no detectable effect; anti-CD3 induced cell division [3]: no significant effect; effect on proliferation of CD4^+CD25^− cells (CD4^+CD25^− T cells [4]; [10]): no significant effect; Numbers of live cells obtained from 1 × 10^6 CD4^+ T cells (CD4^+ T cells; 0.3% alcohol, anti-CD3 + APCs + IL-2, day 7, mean +/− standard deviation, experiments 1-3): 18.5 ± 2.1 ×10^6 and 13 ± 2 ×10^6 and 14 ± 2 ×10^6; anti-CD3-induced elevation of intracellular Ca^2+ (splenic CD4^+ T cells): No significant effect; cells expressing Foxp3 and CTLA-4 (in words) (CD4 Foxp3^+ cells; 3 days with 0.3% alcohol, then 4 days IL-2 without alcohol): almost no cells
